Reference: patent publication US12414960B2, “Analogues of oleuropein and oleacein and uses thereof” (Attica Sciences Ltd., priority 2020, dated 2025)

Legend:
[1] = Superoxide anion radical scavenging assay (NBT reduction); format: biochemical; details: NS = not statistically significant
Excerpt: These radicals may also play an important role in the peroxidation of unsaturated fatty acids and possibly other susceptible substances.
Under aerobic conditions, superoxide anion radicals are generated nonenzymatically in a NADH-PMS system by oxidation of […] (NADH) with phenazine methosulphate (PMS) in the presence of dissolved oxygen. (See, Nimse, Satish B. et al., RSC Adv, 2015, 5: 27986, “Free radicals, natural antioxidants, and their reaction mechanisms”). The superoxide anion radical O2.^− reduces the pale yellow colored nitroblue tetrazolium cation (NBT^2+) to a blue colored formazan dye, which is measured spectrophotometrically at 560 nm. The decrease of absorbance at 560 nm with antioxidant indicates the consumption of […] in the reaction mixture (FIG. 4).
The superoxide anion radical scavenging activity of each GS compound was determined using the nitro-blue tetrazolium (NBT) reduction method (Cos, Paul et al., J Nat Prod. 1998; 61(1): 71-76). The results were calculated as the percentage of inhibition according to the following formula: I (%)=100 [1−(S−SB)/(C−CB)] Where S, SB, C, and CB are the absorbance of the sample, the blank sample, the control, and the blank control, respectively.

IL-6 = assay: ELISA of IL-6 in PMA/LPS-treated THP-1 cells; format: cell-based, human; details: THP-1, PMA then LPS 100 ng/ml 24 hours, 5 uM compound added 2 hours before LPS
Protocol: (§1) Human monocytes (THP-1, ATCC) were cultured in RPMI 1640 media supplemented with HEPES buffer (10 mM), sodium pyruvate (1 mM), glucose (4.5 g/L), fetal bovine serum (10%), penicillin (100 U/mL), streptomycin (100 μg/mL), and 2-mercaptoethanol (0.05 mM). THP-1 cells were treated with PMA (100 ng/ml) for 48 hours and then washed and rested for 24 hours in PMA-free media. These cells were treated with LPS (100 ng/ml) for 24 hours in the presence or absence of 5 uM of […] compounds (added 2 hours before LPS). Cell culture supernatants were collected and IL-1β (cat. No DLB50, R&D Systems), TNF-α (cat. no. DTA00D, R&D Systems) and IL-6 (cat. No D6050, R&D Systems) protein levels were evaluated by ELISA assay.

IL-1β = assay: ELISA of IL-1β in PMA/LPS-treated THP-1 cells; format: cell-based, human; details: THP-1, PMA then LPS 100 ng/ml 24 hours, 5 uM compound added 2 hours before LPS
Protocol: as §1

p70 S6 (T389) = assay: ELISA of p70 S6 (T389) in PANC-1 cells; format: cell-based, human; details: rIGF1, 5 μM, 24 hours
Protocol: (§2) ELISA assay was used to evaluate the effect of GS compounds on protein activity levels in PANC-1 cancer cells. PANC-1 cells were serum-starved overnight and then treated with rIGF1 (100 ng/mL) for 24 hours, with or without GS27 (5 μM). The levels of the following proteins were evaluated by ELISA assay: a) p70 S6 (T389) (cat no. 54164C, Cell Signaling); b) pAKT (S473), (cat no. 80895, Cell Signaling); c) pACLY (S455), (cat no. okag1672, Avivasysbio); d) pAMPK (T172) (cat no. 7959C, Cell Signaling) and e) p65/NFKB (S536), (cat no. 7173, Cell Signaling).
(§3) PANC-1 is a human pancreatic ductal adenocarcinoma cell line derived from the carcinoma of a person.
(§4) The molecular mechanism of action of GS27, a compound that has exerted potent anti-cancer activity in different cancer cell lines including pancreatic cancer cells, was investigated. Oleacein has been implicated to have anti-inflammatory and metabolic effects, thus the potential effects of GS27 in different metabolic and inflammatory pathways were evaluated. Specifically, the protein levels of p70 S6 (T389), pAKT (S473), pACLY (S455), pAMPK (T172) and p65/NFKB (S536) were evaluated by ELISA assay in PANC-1 pancreatic cancer cells treated with 5 μM GS27. GS27 reduced p70 S6 and AKT phosphorylation levels, while it increased AMPK phosphorylation.

HepG2 liver cancer tumor = assay: HepG2 xenograft mouse model; format: in vivo, nu/nu mice; details: 20 mg/kg i.p. every 5 days, until 20 days post-treatment
Protocol: The effect of GS27 on liver cancer tumor growth in mice was evaluated in a HepG2 xenograft mouse model. HepG2 is a human liver cancer cell line, obtained from ATCC (cat. No HB-8065). Since hepatocellular carcinoma is often treated with the chemotherapeutic agent doxorubicin and embolization, results were compared to those obtained with doxorubicin.
Xenograft tumors were generated by injecting HepG2 liver cancer cells (2.5×10^6) into the right flank of female nu/nu mice (Charles River Laboratories). All mice developed tumors in 10 days with size of approximately 100 mm3. For each experiment, mice were randomly distributed into equal groups (4 mice per group) that were untreated, or treated by intraperitoneal injections every 5 days with 20 mg/kg GS27 or doxorubicin. Tumor volume (average, SD) was evaluated until 20 days post-treatment.

in vivo = details: female, NOD SCID (NOD.CB17-Prkdc^scid/J), mouse, ip
Excerpt: The guidelines of the NCI DTP (National Cancer Institute, Developmental Therapeutics Program, NIH, USA) for acute toxicity testing (DOI: 10.1021/acs.biomac.8b00959) were followed to determine Maximum Tolerated Dose (MTD) of GS27.
For the MTD studies, NOD.CB 17-Prkdc^scid/J mice (also known as NOD SCID mice) were used. All animals for in vivo experiments were kept under specific pathogen-free (SPF) conditions in Type II Long cages, at the experimental unit of our department (Department of Pharmacology, EL42-BIO_Exp03, protocol license 5542/22806-30/11/2015) in a climate-regulated environment (21±1° C.; 50-55% relative humidity) under a 12 h/12 h (lights on at 7:00 AM) light/dark cycle and allowed ad libitum food and water. Female and male mice, 6-8 weeks old, were used in the studies described here. GS27 compound was administered to 15 female mice at two different doses. GS at either 100 or 50 mg/kg was administered in a single dose via i.p. injection in pre-weighed mice. One group of five mice received the carrier and served as controls. […] Mice were also weighed twice weekly for two weeks.

p65/NFKB (S536) = assay: ELISA of p65/NFKB (S536) in PANC-1 cells; format: cell-based, human; details: rIGF1, 5 μM, 24 hours
Protocol: as §2, §3, §4

For `C/C=C1/[C@H](OC2OC(CO)C(O)C(O)C2O)OC=C(C(=O)O)[C@H]1CC(=O)OCCc1ccc(O)c(O)c1` (stereo in doubt) [GS6, (2S,4S,E)-4-(2-(3,4-dihydroxyphenethoxy)-2-oxoethyl)-3-ethylidene-2{[(2R,3S,4R,5R,6S)-3,4,5-trihydroxy-6-(hydroxymethyl)tetrahydro-2H-pyran-2-yl]oxy}-3,4dihydro-2H-pyran-5-carboxylic acid], the “Superoxide Anion Radical Scavenging Assay IC50” value [1] was 23.2 μg extract/mL.
For `C/C=C1/[C@H](O[C@@H]2O[C@H](CO)[C@@H](O)[C@H](O)[C@H]2O)OC=C(C(=O)OC)[C@H]1CC(=O)OCCc1ccc(O)c(O)c1` [GS1, oleuropein], the “Superoxide Anion Radical Scavenging Assay IC50” value [1] was 40.5 μg extract/mL.
In the case of `C/C=C(/C=O)[C@@H](CC=O)CC(=O)OCCOc1ccccc1` [GS24, (3S,4E)-4-formyl-3-(2-oxoethyl)-4-hexenoic acid 2-phenoxyethyl ester], the IL-6 protein levels (IL-6) was “effective for reducing” and the IL-1β protein levels (IL-1β) was “more effectively reduced”.
In the case of `C/C=C(/C=O)[C@@H](CC=O)CC(=O)SCCc1ccccc1` [GS27, S-phenethyl (3S,4E)-4-formyl-3-(2-oxoethyl)hex-4-enethioate], the “p70 S6 phosphorylation levels” value (p70 S6 (T389)) was “reduced”, the “reduction in the tumor size, HepG2 liver cancer” value (HepG2 liver cancer tumor) was 80% and the MTD at 2 weeks (in vivo) was over 200 mg/kg. For the same compound, the “dose well tolerated for two weeks” value (in vivo; 2 weeks) was “up to 100 mg/kg” and the p65/NFKB activity (p65/NFKB (S536)) was “inhibiting”.
